This is an account of results in patent EP0540969B1, “Derivatives of structurally modified VIP and pharmaceutical compositions containing them” (YEDA RESEARCH AND DEVELOPMENT CO. LTD., priority 1991, dated 1998).

The subject of one data set is castrated rats. Nature of the data set: Biological tests for penile reflexes (latency and number of E2 and cups) after transdermal application. It is filed as in vivo. Particulars: ointment with Sefsol 318 carrier; for Number of E2: during the test period (Fig. 1C); for Number of Cups: during the test period (Fig. 1D). The method, then:
The following ointment compositions were prepared and tested for transdermal application of lipophilic conjugated modified VIP derivatives in accordance with the present invention. Similar conjugates of unmodified VIP derivatives were tested for comparison. • 1. Ointment containing glycerine as a carrier: The ointment was prepared as follows: 2 g glycerine + 10 mg stearoyl-VIP + 7 drops of DMSO (dimethylsulfoxide). Each rat received 30-50 µg of stearoyl-VIP in about 10 µl ointment. (GLY in Figure 1). • 2. Ointment containing a lubricant as a carrier: The ointment was prepared as above, only glycerine was replaced by lubricant (K-Y Lubricating Jelly, Johnson & Johnson, containing propylene glycol and glycerine), 7 drops of DMSO equals about 130 µl. (LUB in Figure 1). • 3. Ointment containing a lubricant and nitroglycerine as a carrier: Prepared as in (2) above with 1.7 ml nitroglycerine (1 mg/ml), (LUB-NTG in Figure 1). • 4. Ointment containing Sefsol 318™ (12) as a carrier: The ointment composition was: 31.2 µl 10% Sefsol 318™ (glyceryl monocaprylate), 0.24 mg stearoyl-VIP in 31.2 µl DMSO (1-2µl per animal) (SEFS in Figure 1) or 0.24 mg stearoyl -Nle^17-VIP in 31.2µl DMSO (SEFS in Fig. 1).
The biological tests involved measurements of penile reflexes in castrated rats following transdermal application of modified and native VIP conjugates. […] In a further set of experiments the effects of stearoyl-VIP compounded with Sefsol 318™ were compared with those of stearoyl -Nle^17-VIP compounded with Sefsol 318™.
Rats with reduced sexual potential due to castration were employed. Male rats (250-300 g, about three month old) were kept in a 12-hours light, 12-hours dark cycle. Experiments were always conducted within the dark period, 2-6 hours after the onset of darkness. Male rats were castrated and given partial testosterone replacement (4 µg/100 g body weight) in the form of daily injection for 14-21 consecutive days (the duration of the experiment). Experiments were conducted one week following surgery.
A procedure was utilized that employed the technique that measures sexual reflexes in the penis, which enables direct evaluation of penile erection following transdermal administration of the drug. Successful reproduction depends, in large part, upon the precise execution of temporally organized, functionally related behavioural units. In these experiments, we concentrated on the final stages of the erection process (reddening of the penis accompanied by its distension and extension leading to complete erection) and monitored the latency time to the first E2 and first cup (13).
For testing, each animal was restrained in a supine position with the anterior portion of its body enclosed in a loosely fitting cylinder (7 cm diam). After a belt was secured around the torso, the glans penis was extruded from its sheath and gently held perpendicular to the abdomen by a thin wooden applicator positioned at the posterior of the penis. The legs of the male were held by the observer and this position was maintained throughout the test period. The duration of the session was 45 minutes. The latencies and numbers of E2 and cups were recorded and plotted.
An E2 is defined as a complete erection which can be followed by cup in which the penile tip is turned into a cup-like structure, whereby the glands flare out such that the penis is wider in its distal portion than its base. This final stage requires E2 and is probably a pre-requisite for ejaculation (13). Using all the parameters one can obtain a reliable measure of the sexual activity of the tested rat.
Six to ten animals were tested in this paradigm for each variable. Control animals received ointment compositions without St-VIP or St-Nle^17-VIP.

The nature of data set [1]: Skin penetration and body distribution of 125I-labelled VIP derivatives after transdermal application in Sefsol 318. It is filed as in vivo. From the text:
These experiments were divided into two groups. In the first group of experiments we performed a time course of the distribution of radioactively labelled stearoyl-Nle^17-VIP (in Sefsol 318™), applied transdermally, in various organs of the body. In the second group of experiments we compared the penetration of four radioactively labelled VIP derivatives with Sefsol 318™ following transdermal application. Two to four animals were used for each data point. The derivatives were labelled with ^125I using the chloramine-T based method (14).
In the first group of experiments, stearoyl-Nle^17-VIP was radioactively labelled with ^125I. Each animal received 2.2 million CPM, in 6µl of the radioactive material+ 26µl ointment (ointment No. 4 in Example 5). Two animals were used for each time point in two independent experiments. To avoid oral absorbance, the animal mouth was sealed. At indicated times following topical application, animals were sacrificed and duplicate tissue samples were removed, weighed and counted in a gamma counter. Tissues measured were: lungs (LU), heart (HE), kidneys (KI), liver (LI) and intestine (IN).
In the second group of experiments compositions of Sefsol 318™ and VIP, St-VIP, Nle^17-VIP and St-Nle^17-VIP were prepared. The experiments were performed as in Figure 2 with the only difference that each animal received a 2.4 million CPM. 2-4 animals were utilized for each variable. Animals were sacrificed 30 minutes after the application of the drug.

The test system of data set [2] is rat. Nature of the data set: Acute toxicology studies. It counts as in vivo. The following applies: for gross side effects / mortality: dose of 7 mg/rat. Here is the method: (§1) To assess the degree of toxicity and possible side effects of stearoyl-Nle^17-VIP, two types of studies were performed: 1. acute toxicology studies; 2. repeated dose toxicity studies.
(§2) The drug was prepared essentially as follows: 539 mg stearoyl-Nle^17-VIP+2.31 ml 10% Sefsol+2.31 ml 40% isopropanol. The experimental animal was the rat (160-300 g body weight).
(§3) In the acute toxicology studies, three routes of administration were chosen: 1. subcutaneous; 2. intravenous; 3. oral.

Data set [3] deals with rat. Kind of data set: Repeated dose toxicity studies, daily topical application. It counts as in vivo. Particulars: daily topical application (to the sex organ), dose of 3.5 mg/animal. The method, then:
as §1, §2, §3

A short description of data set [4]: Stability compared with the unmodified conjugate. It is filed as physicochemical. The following applies: compared with stearoyl-VIP in which the amino acid sequence was not altered.

For the compound `CCCCCCCCCCCCCCCCCC(=O)N[C@@H](Cc1c[nH]cn1)C(=O)N[C@@H](CO)C(=O)N[C@@H](CC(=O)O)C(=O)N[C@@H](C)C(=O)N[C@H](C(=O)N[C@@H](Cc1ccccc1)C(=O)N[C@H](C(=O)N[C@@H](CC(=O)O)C(=O)N[C@@H](CC(N)=O)C(=O)N[C@@H](Cc1ccc(O)cc1)C(=O)N[C@H](C(=O)N[C@@H](CCCNC(=N)N)C(=O)N[C@@H](CC(C)C)C(=O)N[C@@H](CCCNC(=N)N)C(=O)N[C@@H](CCCCN)C(=O)N[C@@H](CCC(N)=O)C(=O)N[C@@H](CCSC)C(=O)N[C@@H](C)C(=O)N[C@H](C(=O)N[C@@H](CCCCN)C(=O)N[C@@H](CCCCN)C(=O)N[C@@H](Cc1ccc(O)cc1)C(=O)N[C@@H](CC(C)C)C(=O)N[C@@H](CC(N)=O)C(=O)N[C@@H](CO)C(=O)N[C@H](C(=O)N[C@@H](CC(C)C)C(=O)N[C@@H](CC(N)=O)C(N)=O)[C@@H](C)CC)C(C)C)[C@@H](C)O)[C@@H](C)O)C(C)C` [St-VIP, stearoyl-VIP, reference compound], in the data set with castrated rats, the “Number of E2” value worked out at 24 and the “Number of Cups” value was found to be 12.
As for “stearoyl -norleucine^17-VIP [St-Nle^17-VIP]”, the “Latency to first E2” value in the data set on castrated rats (45 min session (Fig. 1A)) was “about 1 minute”. The “Latency to first cup” value with castrated rats (45 min session (Fig. 1B)) is 10 min. Also, in the data set on castrated rats, the “Number of E2” value is 34 and the “Number of Cups” value was 20. In addition, the “tissue concentrations compared among VIP, St-VIP, Nle^17-VIP and St-Nle^17-VIP” value in data set [1] (in Sefsol 318, animals sacrificed 30 minutes after application (Fig. 3)) is “highest concentrations”. For the same compound, the “peak deliveries (time after administration)” value in data set [1] (in Sefsol 318, topical, lungs, heart, kidneys, liver, intestine (Fig. 2)) was 15 to 60 min. Besides, the “disappearance (time after administration)” value in data set [1] (in Sefsol 318, topical, tissue samples (Fig. 2)) amounted to 2.5 h. The LD50 in the data set on rat [2] (intravenous injection) was found to be 7 mg/rat. Besides, in the data set on rat [2] (oral administration), the gross side effects entry is given as “no gross side effects” and the mortality entry is reported as “no mortality”. Also, in the data set with rat [2] (subcutaneous administration), the gross side effects entry is reported as “no gross side effects” and the mortality result is “no mortality”. In addition, in the data set on rat [3], the mortality entry is given as “no mortality” and the side effects result is listed as “nor any side effects”. Also, in data set [4], the “stability relative to stearoyl-VIP” value is listed as “more stable”.
